Measured values published in patent US20070275982A1, “METHOD” (ASTRAZENECA AB, priority 2006, published 2007).
Read-outs that look alike come from different tables or passages of the source.

Test system: M. tuberculosis
Assay: MIC of drugs alone and in combination (synergy test)
Format: cell-based, Mycobacterium tuberculosis
Conditions: for change of MIC when tested together: combination Ethambutol + Isoniazid (negative control, FIG. 2); for MIC: Mycobacterium tuberculosis, drug tested alone, read-out: individual MIC
Method: A sulfonylurea ALS inhibitor and a triazolopyrimidine ALS inhibitor were tested alone and in combination with Rifampicin. The positive controls used were Isoniazid and Streptomycin where one finds a synergistic action. The individual MICs of Isoniazid (INH) and Streptomycin (Strep) are 0.03 and 1.0 μg/ml respectively. When used in combination, these values drop to 0.0075 and 0.12 μg/ml respectively (cf. FIG. 1). This is 4 fold and 8 fold less.
The negative control used was a combination of Ethambutol (Etham) and Isoniazid (Inh) where there is no synergistic activity. […] In. Clinical Microbiology Procedures Handbook; Vol. 1-2 by Isenberg, Henry. D. Ed Washington D.C.; American Society for Microbiology/1992; Pages 5.18.1 to 5.18.28).

[1] = combination Isoniazid + Streptomycin
[2] = combination Isoniazid + Streptomycin (positive control, FIG. 1)

SMILES | change of MIC when tested together | MIC [µg/mL] | fold drop of MIC in combination vs individual MIC [1] [fold] | MIC when used in combination [2] [µg/mL] | MIC (Rifampicin/TP experiment (FIG. 4)) [µg/mL] | fold drop of MIC in combination vs individual MIC (combination Rifampicin + SU) [fold] | fold drop of MIC in combination vs individual MIC (combination Rifampicin + TP) [fold] | MIC when used in combination (combination Rifampicin + sulphonylurea compound (SU), FIG. 3) [µg/mL] | MIC when used in combination (combination Rifampicin + triazolopyrimidine compound (TP), FIG. 4) [µg/mL]
CC[C@@H](CO)NCCN[C@@H](CC)CO [Ethambutol] | do not drop significantly | – | – | – | – | – | – | – | –
NNC(=O)c1ccncc1 [Isoniazid] | do not drop significantly | 0.03 | 4 | 0.0075 | – | – | – | – | –
CO[C@H]1/C=C/O[C@@]2(C)Oc3c(C)c(O)c4c(O)c(c(/C=N/N5CCN(C)CC5)c(O)c4c3C2=O)NC(=O)/C(C)=C\C=C\[C@H](C)[C@H](O)[C@@H](C)[C@@H](O)[C@@H](C)[C@H](OC(C)=O)[C@@H]1C [Rifampicin] | – | 0.03 | – | – | 0.015 | 8 | 4 | 0.0038 | 0.0038
[H]/N=C(/N)N[C@H]1[C@H](O)[C@@H](O)[C@H](O[C@@H]2O[C@@H](C)[C@](O)(C=O)[C@H]2O[C@@H]2O[C@@H](CO)[C@H](O)[C@@H](O)[C@@H]2NC)[C@@H](N/C(N)=N\[H])[C@@H]1O [Streptomycin] | – | 1 | 8 | 0.12 | – | – | – | – | –
